This is an account of results in patent US20240009234A1, “SYNTHETIC OLIGOMERIZATION SYSTEMS FOR CELL ENGINEERING AND THERAPY” (The Board of Trustees of the Leland Stanford Junior …, priority 2020, published 2024).

What all share (conditions): 8-24 hr
Test [1] relates to truncated FKBP-TLR5 receptors. The test is described as follows: NFκβ activity of Jurkat-NFκβ-GFP reporter cells with truncated FKBP-TLR5 receptor constructs. It is filed as cell-based, human. The method, then:
(§1) In each of the following examples, standard molecular cloning techniques were performed to assemble nucleic acid sequences encoding components of chimeric transmembrane receptor polypeptides onto plasmid backbones. Plasmids were transfected into HEK293T cells to create lentivirus. Lentivirus was transduced into all cell lines to create receptor engineered cells. Presence of the receptor was determined by a fluorescent reporter. Receptor engineered Jurkat cells or Jurkat-NFκβ-GFP and/or Jurkat-NFAT-GFP reporter cells were treated with activator for 8-24 hr. Receptor activity was measured by antibody staining or GFP expression via flow cytometry.
To determine where to truncate the TLR5 ECD such that the binding domain could be redirected to expand the soluble factor repertoire, the ECD was also methodically truncated at specific locations prior to fusing to FKBP. […] The graph of FIG. 3 plots the Nκβ activity for Jurkat-NFKκβ-GFP reporter cells engineered with or without truncated receptor constructs and treated with AP20187 activator for 8-24 hr. The graph of FIG. 4 plots the NFκβ activity for Jurkat-NFκβ-GFP reporter cells engineered with or without truncated receptor constructs and treated with Flagellin activator for 8-24 hr. […]

The test system of test [2] is nanobody-fused chimeric transmembrane receptor polypeptide (Nb-TLR5). The test is described as follows: NFκβ activity of Nb-TLR5 receptor-engineered Jurkat-NFκβ-GFP reporter cells. It counts as cell-based. The method, then:
as §1
The receptor ECD was also expanded beyond endogenous proteins to engineered nanobodies that bind to small molecules. For example, FIG. 8 presents results for a nanobody-fused chimeric transmembrane receptor polypeptide (Nb-TLR5) engineered and activated by treatment with the asymmetric monomeric small molecule, caffeine. The graph of FIG. 8 plots NFκβ activity for receptor-engineered Jurkat-NFκβ-GFP reporter cells treated with or without caffeine activator for 8-24 hr.

Test [3] deals with FKBP-TLR5/FRB-TLR5 model receptor system. The experiment in a line: NFκβ activity of FKBP-TLR5/FRB-TLR5 heterodimerization system in Jurkat-NFκβ-GFP reporter cells. It counts as cell-based, human. The method, then: as §1
The receptor was further modified to activate upon heterodimerization (A/B system) by dimerizing two different receptor constructs. FKBP heterodimerizes with FKBP-rapamycin-binding (FRB, protein fragment of human mTOR) with the addition of AP21967 (protein-protein interaction inducing macrocyclic small molecule), and an FKBP-TLR5/FRB-TLR5 model receptor system was engineered and activated with AP21967.

truncated FKBP-TLR5 receptors, sequence (P62942 2-108 F37V limits assumed): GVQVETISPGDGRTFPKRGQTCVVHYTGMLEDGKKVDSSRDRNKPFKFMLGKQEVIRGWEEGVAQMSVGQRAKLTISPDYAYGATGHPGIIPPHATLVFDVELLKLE

For the compound flagellin, the “receptor activation, NFκβ activity (FIGS. 3-5)” value in test [1] is “not”.
As for `Cn1c(=O)c2c(ncn2C)n(C)c1=O` [caffeine], in test [2], the “NFκβ activity (FIG. 8)” value is reported as “activated”.
With `CO[C@H]1[C@@H](O)[C@H](C)C[C@H](C)/C=C/C=C/C=C(\C)[C@@H](c2c[nH]c3c(C)cccc23)C[C@@H]2CC[C@@H](C)[C@@](O)(O2)C(=O)C(=O)N2CCCC[C@H]2C(=O)O[C@H]([C@H](C)C[C@@H]2CC[C@@H](O)[C@H](OC)C2)C[C@H](O)[C@H](C)/C=C(\C)[C@H]1O` [AP21967], in test [3], the “NFκβ activity (FIG. 7)” value was “intramembrane signal pathway activation”.
